# Data: US6589951B1, “Phthalazine derivatives as phosphodiesterase 4 inhibitors” (Zambon Group S.p.A., priority 1997, dated 2003)
# Tests used:
# PDE 3 = molecular target: T1, PDE 3 (Homo sapiens, UniProt Q14432); test: PDE 3 enzyme inhibition test (SPA); type: biochemical; conditions: at 10^-6 M; enzyme from human platelets
# T1 construct: Human platelets were prepared from platelet rich plasma (PRP); from tissue; host or cells: human platelets (platelet rich plasma, L. Sacco Hospital, Milan)
# Protocol: (§1) Human platelets were prepared from platelet rich plasma (PRP) obtained from the Hematological Dept. of the “L.Sacco” Hospital of Milan. The PRP was centrifuged at 2,200 rpm for 15 minutes at 4° C. and the pellet was suspended in lysis solution (15 ml; 155 mM NH4Cl, 10 mM KHCO3 and 0.1 mM Na2EDTA, pH=7.4) and incubated for 10 minutes on ice-bath to remove the erythrocyte contamination. After a centrifuging at 1,400 rpm for 10 minutes at 4° C., platelets were suspended in 10 ml of […], 5 mM KCl, 1 mM MgSO4, 10 mM glucose, 10 mM HEPES and 0.05 U/ml of hirudin (pH=7.4), and stored at −20° C. until homogenization and chromatography.
# (§2) Before the chromatographic step, platelets were thawed and 50 ml of 20 mM TRIS (pH=6.5) containing 5 mM βmercapto-ethanol, 2 mM EDTA, 50mM sodium acetate and 50 μM PMSF (homogenization buffer) were added. The platelet suspension was then homogenized by a Polytron homogenizer (Polytron PT 1200) for 20 seconds. The homogenate was centrifuged at 14,500 rpm for 20 minutes at 4° C., and the supernatant was applied to a UNO Q12 column (Bio-Rad) pre-equilibrated with the PMSF. A flow rate of 4.5 ml/min was used throughout the ion exchange chromatography procedure. The column was washed with PMSF (180 ml) and PDE 3 and PDE 5 were eluted by sodium acetate linear gradient from 0.05M to 1M. The fractions containing enzymatic activity were joined, dialysed against water and concentrated 10 times by ultrafiltration. The resulting solution was stored at −20° C. in the presence of ethylenglycole (30%) v/v) until use.
# (§3) The enzyme activity was assessed with an Amersham kit based on the SPA technique (Scintillation Proximity Assay). The enzymatic reaction was effected in a total volume of 100 μl of TRIS/HCl buffer (50 mM, pH7.5), MgCl2 (8.3 mM), EGTA (1.7 mM), cAMP (for PDE 3 assay) or cGMP (for PDE 5 assay) (1 μM), [^3H]cAMP or [^3H]cGMP (10 μl), and 10 μl of the compounds of the invention. The reaction was started by adding the enzyme (10 μl) incubated for 40 minutes at 30° C. and stopped by adding 50 μl of SPA beads. The radioactivity due to the particles was measured in β-emitting counter. The results are expressed as percent activity versus the control present in each test.
# TNFα = TNFα synthesis inhibition in LPS-stimulated human monocytes (ELISA); type: cell-based; conditions: Monocyte, LPS 1 ng/ml, 16 hours
# Protocol: The monocytes were isolated from peripheral blood of healthy volunteers according the procedure of Schreek L., J. Natl. Cancer Inst., 1964, 32, 507. The monocytes and lymphocytes population was isolated by Ficoll gradient centrifugation, and the cells diluted at a density of 2.5×10^6 cells/ml in RPMI1640 incubation containing 1% inactivated bovine fetal serum, penicillin (100 U/ml) and streptomycin (100 U/ml) were placed in 24-wells plates (1 ml/well) and left to adhere for 1 hour at 37° C. with 5% CO2. At the end of the incubation the lymphocytes not adhering were removed by aspiration and the monocytes adhered to the plate were used in the next step.
# The TNFα synthesis from human monocytes was measured according to the method of Barnette M. et al., Biochemical Pharmacology, 1996, 51, 949. The monocles were incubated for 1 hour with 1 ml of RPMI1640 incubation medium (1% inactivated bovine serum, 100 U/ml penicillin and streptomycin) containing different concentrations of the products according to the present invention or the carrier only for the controls. The TNFα synthesis from monocytes was induced by adding 1ng/ml of LPS (lipopolysaccharide of E. Coli) and after 16 hours of incubation at 37° C., 5% CO2, the incubation medium was removed, and the surnatant stored at −80° C. until the measurement. The TNFα levels were determined by ELISA test with an Amersham kit. The results are set forth in Table 2 as IC50 measured with the same calculation of example 67.
# PDE 4 = PDE 4 enzyme inhibition test (SPA); type: biochemical, human; conditions: for activity on PDE 4 (in words): summary statement in description
# Protocol: The polymorphonucleate leukocytes (PMNs) were isolated from peripheral blood of healthy volunteers according to what described by Boyum A, Scand. J. Immunol., 1976, 5° suppl., 9). Shortly, the isolation of the PMNs was effected by Ficoll-Paque gradient centrifugation followed by sedimentation on dextrane and the erythrocyte contamination was eliminated by hypotonic lysis.
# The human PMNs were resuspended in TRIS/HCl buffer (10 mM pH 7.8) containing MgCl2 (5mM), EGTA (4 mM), mercaptoethanol (5 mM), TRITON-X100 (1%), pepstatin A (1 μM), PMSF (100 μM) and leupeptin (1 μM), and homogenised by Polytron. The homogenate was centrifuged at 25,000×g for 30 minutes at 4° C. and the surnatant was used for the PDE 4 enzyme purification by ion exchange chromatography using the FPLC technique according to what described by Schudt C. et al., Naunyn-Schmidberg's Arch. Pharmacol., 1991, 334, 682. The surnatant was seeded on a UNO Q12 column (Bio-Rad) and the enzyme was eluted by sodium acetate gradient from 50mM to 1M. The fractions containing enzymatic activity were joined, dialysed against water and concentrated. The resulting PDE 4 enzyme was stored at −20° C. in the presence of ethylenglycole (30%) v/v) until use.
# The enzyme activity was assessed with an Amersham kit based on the SPA technique (Scintillation Proximity Assay). The enzymatic reaction was effected in a total volume of 100 μl of TRIS/HCl buffer (50 mM, pH7.5), MgCl2 (8.3mM), EGTA (1.7 mM), cAMP (1μM) and [^3H]cAMP (˜100.000 dpm). The compounds of the invention and the reference ones were added at the wanted concentrations. As reference compounds 6,7 dimethoxy-4-(pyridin-4-ylmethyl)-2H-phthalazin-1 on (reference 1) and 6,7-dimethoxy-4-(piperidin-4-ylmethyl)-2H-phthalazin-1-one (reference 2) embraced by the general formula of the patent application EP-0 722 936 (in the name of Eisai) were used. The reaction was started by adding the enzyme (15 μg protein/ml) in 40 minutes at 30° C. and stopped with 50 μl of SPA particles suspension. The radioactivity of the particles was measured in β-emitting counter. The IC50 values were computed over 9 equidistant concentrations in logarithmic scale using a 4-parameters logistic function by a software.
# PDE 5 = molecular target: T2, PDE 5 (Homo sapiens, UniProt O76074); test: PDE 5 enzyme inhibition test (SPA); type: biochemical; conditions: at 10^-6 M; enzyme from human platelets
# T2 construct: Human platelets were prepared from platelet rich plasma (PRP); from tissue; host or cells: human platelets (platelet rich plasma, L. Sacco Hospital, Milan)
# Protocol: as §1, §2, §3
# [1] = at 10^-6 M, enzyme from human PMNs
# [2] = at 10^-8 M, enzyme from human PMNs
# [3] = enzyme from human PMNs, 9 concentrations, 4-parameter logistic
# [4] = at 10^-5 M, enzyme from human PMNs
# T1 sequence (Q14432 whole entry): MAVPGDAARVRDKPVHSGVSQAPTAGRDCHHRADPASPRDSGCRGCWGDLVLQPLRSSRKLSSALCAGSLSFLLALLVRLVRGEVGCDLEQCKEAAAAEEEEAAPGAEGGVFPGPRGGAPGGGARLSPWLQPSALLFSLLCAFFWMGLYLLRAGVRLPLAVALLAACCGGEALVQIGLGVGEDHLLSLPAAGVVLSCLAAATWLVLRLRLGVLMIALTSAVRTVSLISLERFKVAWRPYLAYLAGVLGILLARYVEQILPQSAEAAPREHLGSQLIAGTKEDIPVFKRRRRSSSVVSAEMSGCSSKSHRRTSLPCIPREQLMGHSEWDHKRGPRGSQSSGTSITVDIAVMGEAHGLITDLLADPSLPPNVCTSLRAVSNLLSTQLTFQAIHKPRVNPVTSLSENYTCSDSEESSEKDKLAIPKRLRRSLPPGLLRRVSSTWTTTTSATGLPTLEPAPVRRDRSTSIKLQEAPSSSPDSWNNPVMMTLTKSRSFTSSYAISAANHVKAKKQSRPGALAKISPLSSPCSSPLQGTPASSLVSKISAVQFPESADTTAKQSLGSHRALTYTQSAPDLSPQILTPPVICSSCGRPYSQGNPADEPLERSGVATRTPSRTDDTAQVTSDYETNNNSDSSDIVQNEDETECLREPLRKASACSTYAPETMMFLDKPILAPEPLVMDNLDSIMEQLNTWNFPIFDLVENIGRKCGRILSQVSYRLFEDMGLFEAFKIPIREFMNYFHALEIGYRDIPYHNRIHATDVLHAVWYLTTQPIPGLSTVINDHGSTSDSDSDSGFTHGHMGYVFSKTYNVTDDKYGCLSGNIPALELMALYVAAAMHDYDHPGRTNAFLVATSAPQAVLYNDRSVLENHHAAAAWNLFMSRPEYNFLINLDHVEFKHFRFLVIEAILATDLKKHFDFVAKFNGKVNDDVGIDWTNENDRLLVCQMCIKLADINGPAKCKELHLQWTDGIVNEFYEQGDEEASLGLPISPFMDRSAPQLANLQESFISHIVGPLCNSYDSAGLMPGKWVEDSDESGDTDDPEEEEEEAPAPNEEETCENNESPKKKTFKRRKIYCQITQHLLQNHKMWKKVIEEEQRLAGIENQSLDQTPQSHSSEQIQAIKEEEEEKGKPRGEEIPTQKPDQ
inhibition at 1 µM (PDE 3) [%],IC50 (TNFα) [nM],PDE 4 % inhibition (PDE 4; [1]) [%],PDE 4 % inhibition (PDE 4; [2]) [%],IC50 (PDE 4; [3]) [nM],inhibition at 1 µM (PDE 5) [%],PDE 4 % inhibition (PDE 4; [4]) [%],IC50 (PDE 4; reference compounds) [nM],activity on PDE 4 (in words) (PDE 4),SMILES
8,187 ± 35,73,–,58.9 ± 5,19,–,–,–,"COc1ccc2c(Nc3c(Cl)cncc3Cl)nncc2c1OC1CCCC1 [Compound 4, 5-Cyclopentyloxy-1-(3,5-dichloropyridin-4-ylamino)-6-methoxy-phthalazine]"
–,–,–,–,186 ± 43,–,–,–,–,"COc1cc2cnnc(Cc3c(Cl)cncc3Cl)c2cc1OC1CCCC1 [Compound 7, 7-Cyclopentyloxy-1-(3,5-dichloropyridin-4-ylmethyl)-6-methoxy-phthalazine]"
–,–,–,–,146 ± 38,–,–,–,–,"COc1cc2c(C)nnc(Cc3c(Cl)cncc3Cl)c2cc1OC1CCCC1 [Compound 9, 7-Cyclopentyloxy-1-(3,5-dichloro-pyridin-4-ylmethyl)-4-methyl-6-methoxy-phthalazine]"
20,259 ± 86,80,33,74.9 ± 8,20,93,–,–,"CCc1nnc(Cc2c(Cl)cncc2Cl)c2cc(OC3CCCC3)c(OC)cc12 [Compound 10, 7-Cyclopentyloxy-1-(3,5-dichloro-pyridin-4-ylmethyl)-4-ethyl-6-methoxy-phthalazine]"
4,–,–,–,153 ± 85,2,–,–,–,COc1ccc2c(Cc3c(Cl)cncc3Cl)nncc2c1OC1CCOC1 (stereo not drawn) [Compound 13]
–,389 ± 47,–,–,298 ± 37,–,–,–,–,COc1ccc2c(Cc3c(Cl)cncc3Cl)n[n+]([O-])cc2c1OC1CCOC1 (stereo not drawn) [Compound 14]
–,–,–,–,–,–,–,> 100000,did not show to be active,"COc1cc2c(Cc3ccncc3)n[nH]c(=O)c2cc1OC [Reference 1, 6,7-dimethoxy-4-(pyridin-4-yl-methyl)-2H-phthalazin-1-one, reference compound]"

# The next lines start with the molecule.
SMILES,inhibition at 1 µM (PDE 3) [%],IC50 (TNFα) [nM],PDE 4 % inhibition (PDE 4; [1]) [%],PDE 4 % inhibition (PDE 4; [2]) [%],IC50 (PDE 4; [3]) [nM],inhibition at 1 µM (PDE 5) [%],PDE 4 % inhibition (PDE 4; [4]) [%],IC50 (PDE 4; reference compounds) [nM],activity on PDE 4 (in words) (PDE 4)
"COc1ccc2c(Cc3c(Cl)cncc3Cl)nncc2c1OC1CCCC1 [Compound 1, 5-Cyclopentyloxy-1-(3,5-dichloropyridin-4-ylmethyl)-6-methoxy-phthalazine]",0,254 ± 84,84,19,53.1 ± 10,20,–,–,–
"COc1ccc2c(Cc3c(Cl)cncc3Cl)n[n+]([O-])cc2c1OC1CCCC1 [Compound 2, 5-Cyclopentyloxy-1-(3,5-dichloropyridin-4-ylmethyl)-6-methoxy-phthalazin-3-oxide]",20,139 ± 55,94,25,42.4 ± 5,4,97,–,–
"FC(F)Oc1ccc2c(Cc3c(Cl)cncc3Cl)nncc2c1OC1CCCC1 [Compound 3, 5-Cyclopentyloxy-1-(3,5-dichloropyridin-4-yl-methyl)-6-difluoromethoxy-phthalazine]",5,167 ± 79,100,34,38.9 ± 7,14,–,–,–
"COc1ccc2c(Cc3c(Cl)cncc3Cl)nncc2c1OC1Cc2ccccc2C1 [Compound 5, 1-(3,5-Dichloro-pyridin-4-methyl)5-(indan-2-yloxy)-6-methoxy-2H-phthalazine]",–,252 ± 120,80,33,29.5 ± 4,–,–,–,–
"COc1ccc2c(Cc3c(Cl)cncc3Cl)nncc2c1OCCCCCc1ccccc1 [Compound 6, 1-(3,5-Dichloro-pyridin-4-methyl)-5-(5-phenyl-pentyl-1-oxy)-6-methoxy-phthalazine]",25,83.5 ± 24,79,27,56.8 ± 9,20,–,–,–
"FC(F)Oc1ccc2c(Cc3c(Cl)cncc3Cl)nncc2c1OC1CCOC1 (stereo not drawn) [Compound 15, 1-(3,5-Dichloro-pyridin-4-ylmethyl)-6-difluoromethoxy-5-(tetrahydro-furan-3-yloxy)-phthalazine]",11,–,–,–,282 ± 36,0,–,–,–
COc1ccc2c(Cc3c(Cl)c[n+]([O-])cc3Cl)n[n+]([O-])cc2c1OC1CCOC1 (stereo not drawn) [Compound 19],–,–,–,–,206 ± 124,8,–,–,–
"COc1cc2c(CC3CCNCC3)n[nH]c(=O)c2cc1OC [Reference 2, 6,7-dimethoxy-4-(piperidin-4yl-methyl)-2H-phthalazin-1-one, reference compound]",–,–,–,–,–,–,–,> 100000,did not show to be active
